Peptide text beside a SMILES is read from it. * marks the point of attachment. 5TAMRA = CN(C)c1ccc2c(c1)Oc1cc(N(C)C)ccc1C21OC(=O)c2cc(C(=O)*)ccc21
What was measured:
[1] = system: bovine BCEC monolayers co-cultured with rat astrocytes; test: Transport, membrane adherence and cell uptake quantified by TAMRA fluorescence (bovine model); format: in vitro ADME; conditions: 3 h, 37 °C, N = 2-3, n = 3; for peptide transported across the barrier (abluminal content): 100 µM peptide luminal, 90 rpm, medium with 10% FBS, abluminal TAMRA fluorescence, compared to TAMRA-NR2B9c; for peptide adhering to the cell surface / peptide taken up by the cells (endothelial cells and astrocytes): 100 µM peptide, TAMRA fluorescence 542/568 nm, mean ± SEM; for peptide adhering to the cell surface: acetic acid buffer pH 3 wash fraction; for peptide taken up by the cells (endothelial cells and astrocytes): lysate fraction
Experimental: Transport across bovine or mouse BCEC monolayers co-cultured with rat astrocytes was carried out over 3 h at 37 °C with horizontal shaking (90 rpm). TEER was measured at room temperature using an Endohm 12 cup (World Precision Instruments, Sarasota, FL, USA) connected to a Millicell-ERS device (Millipore, Bedford, MA, USA). TEER was measured before application of the peptides and after each experiment. The bovine model had initial TEER values ranging from 771 to 1332 Ω·cm^2, whereas the mouse model had initial TEER values ranging from 136 to 217 Ω·cm^2.
TAMRA fluorescence was measured using a NovoStar fluorescence plate reader (BMG Labtech, Offenburg, Germany) with excitation/emission set to 542/568 nm. The transported peptide was calculated using standard curves ranging from 31 nM to 2 µM. All peptide standard curves were subjected to 3 h of incubation at 37 °C with horizontal shaking (90 rpm) in differentiation media withdrawn from BCECs co-cultured with rat astrocytes.
Two filters from each BCEC batch were subjected to quantification of the TAMRA-peptide adhering to the BCEC plasma membrane and peptide taken up by the BCECs and astrocytes. […] The peptide solutions were removed from the cells and the filters washed thrice with 37 °C hHBSS. To isolate the peptide fraction adhering to the plasma membrane, the BCECs were placed on ice and incubated with 300 µL ice-cold acetic acid buffer ([…], 1% BSA, pH 3) for 5 min. The acetic acid buffer solution was gently pipetted up and down twice prior to collection of 100 µL samples into a black clear-bottom 96-well plate for analysis. The remaining acetic acid buffer solution was removed from the luminal chamber and the cells washed thrice with ice-cold hHBSS. To isolate the peptide fraction being taken up by the BCECs and astrocytes, the filter inserts were cut out and 150 µL of ice-cold lysis buffer (10 mM Tris-HCl, 0.25 M sucrose, 1 mM EDTA, 1 mM ethylene-bis(oxyethylenenitrilo)tetraacetic acid tetrasodium (EGTA), 2% Tergitol™, Complete® inhibitor tablet) added prior to incubation for 10 min on ice. The cells were homogenized using a pellet pestle (Merck, St. Louis) and subjected to centrifugation at 10,000× g at 4 °C for 10 min. The 100 µL supernatant was transferred into a black clear-bottom 96-well plate. TAMRA fluorescence was measured using a NovoStar fluorescence plate reader (BMG Labtech, Offenburg, Germany) with excitation/emission set to 542/568 nm. The molar amount of membrane-adhered peptide and peptide taken up by the cells was calculated using standard curves freshly prepared in acetic acid buffer and lysis buffer, respectively, in concentrations ranging from 40 nM to 2.5 µM.

[2] = system: monocultures of primary bovine BCECs; test: Live cell peptide uptake; format: cell-based; conditions: 1 h, 37 °C, live cell imaging; 100 µM TAMRA-NR2B9c, 50 µM Tat peptides (method) / 100 µM (Figure 4 legend)
Experimental: BCECs were obtained from a batch of isolated capillary fragments and cultured as described in Section 2.2. Following trypsinization on day 5, the BCECs were re-suspended in differentiation medium and 90,000/cm^2 seeded on collagen- and fibronectin-coated (both 10 µg/mL in PBS) LabTek® microscope slides (Merck, Søborg, Denmark). The cells were left in the incubator (10% CO2, 37 °C) for 48 h prior to use. […] The test solutions were removed and pre-warmed media containing 300 nM Hoechst and Lysotracker® (1:20,000; Thermo Fischer Scientific, Bedford, MA, USA) applied to the cells for 10 min at 37 °C. The cells were gently washed twice in 37 °C hHBSS and immediately imaged in FluoBrite medium (Thermo Fischer Scientific, Bedford, MA, USA). Images were captured using an Olympus IX-83 fluorescent microscope (Olympus, Hamburg, Germany) equipped with a Yokogawa CSU-X spinning disc unit (Yokogawa, Tokyo, Japan) and Andor iXon Ultra 897 camera (Oxford Instruments, Abingdon, Great Britain) using cellSens software (Olympus, Hamburg, Germany).

Row | Compound | peptide transported across the barrier (abluminal content) [1] | peptide adhering to the cell surface [1] | peptide taken up by the cells (endothelial cells and astrocytes) [1] | peptide uptake into live BCECs [2]
1 | CN(C)c1ccc2c(c1)Oc1cc(N(C)C)ccc1C21OC(=O)c2cc(C(=O)N[C@@H](Cc3ccc(O)cc3)C(=O)NCC(=O)N[C@@H](CCCNC(=N)N)C(=O)N[C@@H](CCCCN)C(=O)N[C@@H](CCCCN)C(=O)N[C@@H](CCCNC(=N)N)C(=O)N[C@@H](CCCNC(=N)N)C(=O)N[C@@H](CCC(N)=O)C(=O)N[C@@H](CCCNC(=N)N)C(=O)N[C@@H](CCCNC(=N)N)C(=O)N[C@@H](CCCNC(=N)N)C(=O)O)ccc21 [TAMRA-Tat] | to a greater extent than TAMRA-NR2B9c | Significantly larger amounts | Significantly larger amounts | taken up into vesicular structures to a similar extent
2 | CC[C@H](C)[C@H](NC(=O)[C@H](CO)NC(=O)[C@H](CO)NC(=O)[C@H](CC(C)C)NC(=O)[C@H](CCCCN)NC(=O)c1ccc2c(c1)C(=O)OC21c2ccc(N(C)C)cc2Oc2cc(N(C)C)ccc21)C(=O)N[C@@H](CCC(=O)O)C(=O)N[C@@H](CO)C(=O)N[C@@H](CC(=O)O)C(=O)N[C@H](C(=O)O)C(C)C [TAMRA-NR2B9c] (5TAMRA-KLSSIESDV-OH) | – | Minute amounts | Minute amounts | No uptake
3 | CC[C@H](C)[C@H](NC(=O)[C@H](CO)NC(=O)[C@H](CO)NC(=O)[C@H](CC(C)C)NC(=O)[C@H](CCCCN)NC(=O)[C@H](CCCNC(=N)N)NC(=O)[C@H](CCCNC(=N)N)NC(=O)[C@H](CCCNC(=N)N)NC(=O)[C@H](CCC(N)=O)NC(=O)[C@H](CCCNC(=N)N)NC(=O)[C@H](CCCNC(=N)N)NC(=O)[C@H](CCCCN)NC(=O)[C@H](CCCCN)NC(=O)[C@H](CCCNC(=N)N)NC(=O)CNC(=O)[C@H](Cc1ccc(O)cc1)NC(=O)c1ccc2c(c1)C(=O)OC21c2ccc(N(C)C)cc2Oc2cc(N(C)C)ccc21)C(=O)N[C@@H](CCC(=O)O)C(=O)N[C@@H](CO)C(=O)N[C@@H](CC(=O)O)C(=O)N[C@H](C(=O)O)C(C)C [TAMRA-Tat-NR2B9c] (5TAMRA-YGRKKRRQRRRKLSSIESDV-OH) | to a greater extent than TAMRA-NR2B9c | Significantly larger amounts | Significantly larger amounts | taken up into vesicular structures to a similar extent
4 | CC[C@H](C)[C@H](NC(=O)CCOCCOCCN(CCOCCOCCC(=O)N[C@H](C(=O)N[C@@H](CCC(=O)O)C(=O)N[C@H](C(=O)N[C@@H](CC(=O)O)C(=O)N[C@H](C(=O)O)C(C)C)[C@@H](C)O)[C@@H](C)CC)C(=O)[C@H](CCCNC(=N)N)NC(=O)[C@H](CCCNC(=N)N)NC(=O)[C@H](CCCNC(=N)N)NC(=O)[C@H](CCC(N)=O)NC(=O)[C@H](CCCNC(=N)N)NC(=O)[C@H](CCCNC(=N)N)NC(=O)[C@H](CCCCN)NC(=O)[C@H](CCCCN)NC(=O)[C@H](CCCNC(=N)N)NC(=O)CNC(=O)[C@H](Cc1ccc(O)cc1)NC(=O)c1ccc2c(c1)C(=O)OC21c2ccc(N(C)C)cc2Oc2cc(N(C)C)ccc21)C(=O)N[C@@H](CCC(=O)O)C(=O)N[C@H](C(=O)N[C@@H](CC(=O)O)C(=O)N[C@H](C(=O)O)C(C)C)[C@@H](C)O [TAMRA-Tat-N-dimer] | No significant difference | Minute amounts | Minute amounts | taken up into vesicular structures to a similar extent
